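Cultured in 96-well plates, cells were exposed to test compound for 48 hours across five concentrations. GI50 = concentration required for 50% inhibition of growth. At the TGI there is no net growth.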
Columns and labels:
Assay in all cases: growth of human tumour cells (NCI), 48 h
786-0 renal = test system: 786-0 renal
A498 renal = test system: A498 renal
A549 NSCLC = test system: A549 NSCLC
ACHN renal = test system: ACHN renal
BT-549 breast = test system: BT-549 breast
CAKI-1 renal = test system: CAKI-1 renal
CCRF-CEM leukemia = test system: CCRF-CEM leukemia
COLO 205 colon = test system: COLO 205 colon
DU-145 prostate = test system: DU-145 prostate
EKVX NSCLC = test system: EKVX NSCLC
HCC-2998 colon = test system: HCC-2998 colon
HCT-116 colon = test system: HCT-116 colon
HCT-15 colon = test system: HCT-15 colon
HL-60(TB) leukemia = test system: HL-60(TB) leukemia
HOP-62 NSCLC = test system: HOP-62 NSCLC
HOP-92 NSCLC = test system: HOP-92 NSCLC
HS 578T breast = test system: HS 578T breast
HT29 colon = test system: HT29 colon
IGROV1 ovarian = test system: IGROV1 ovarian
K-562 leukemia = test system: K-562 leukemia
KM12 colon = test system: KM12 colon
LOX IMVI melanoma = test system: LOX IMVI melanoma
MALME-3M melanoma = test system: MALME-3M melanoma
MCF7 breast = test system: MCF7 breast
MOLT-4 leukemia = test system: MOLT-4 leukemia
NCI-H226 lung = test system: NCI-H226 lung
NCI-H460 lung = test system: NCI-H460 lung
NCI-H522 lung = test system: NCI-H522 lung
NCI/ADR-RES ovarian = test system: NCI/ADR-RES ovarian
OVCAR-3 ovarian = test system: OVCAR-3 ovarian
OVCAR-4 ovarian = test system: OVCAR-4 ovarian
OVCAR-5 ovarian = test system: OVCAR-5 ovarian
OVCAR-8 ovarian = test system: OVCAR-8 ovarian
PC-3 prostate = test system: PC-3 prostate
RPMI-8226 leukemia = test system: RPMI-8226 leukemia
RXF 393 renal = test system: RXF 393 renal
SF-268 CNS = test system: SF-268 CNS
SF-295 CNS = test system: SF-295 CNS
SF-539 CNS = test system: SF-539 CNS
SK-MEL-2 melanoma = test system: SK-MEL-2 melanoma
SK-MEL-28 melanoma = test system: SK-MEL-28 melanoma
SK-MEL-5 melanoma = test system: SK-MEL-5 melanoma
SK-OV-3 ovarian = test system: SK-OV-3 ovarian
SN12C renal = test system: SN12C renal
SNB-19 CNS = test system: SNB-19 CNS
SNB-75 CNS = test system: SNB-75 CNS
SR leukemia = test system: SR leukemia
SW-620 colon = test system: SW-620 colon
T-47D breast = test system: T-47D breast
TK-10 renal = test system: TK-10 renal
U251 CNS = test system: U251 CNS
UACC-257 melanoma = test system: UACC-257 melanoma
UACC-62 melanoma = test system: UACC-62 melanoma
UO-31 renal = test system: UO-31 renal

`COc1cc(C2=NNC(c3ccc(N(C)C)cc3)C2)cc(OC)c1OC` (stereo not drawn) was tested, and the GI50 (786-0 renal) was 1.93 µM, the TGI (786-0 renal) was over 100 µM and the GI50 (A498 renal) was 2.87 µM. It also gave a TGI (A498 renal) of 8.84 µM, a GI50 (A549 NSCLC) of 3.94 µM and a TGI (A549 NSCLC) of over 100 µM. For the same molecule, the GI50 (ACHN renal) was 11.3 µM, the TGI (ACHN renal) was over 100 µM and the GI50 (BT-549 breast) was 0.811 µM. It also gave a TGI (BT-549 breast) of 10.3 µM, a GI50 (CAKI-1 renal) of 2.68 µM and a TGI (CAKI-1 renal) of over 100 µM. It also gave a GI50 (CCRF-CEM leukemia) of 1.62 µM, a TGI (CCRF-CEM leukemia) of 6.22 µM and a GI50 (COLO 205 colon) of 2.39 µM. The TGI (COLO 205 colon) was 12.5 µM, the GI50 (DU-145 prostate) was 1.88 µM and the TGI (DU-145 prostate) was 5.41 µM. It also gave a GI50 (EKVX NSCLC) of 2.02 µM, a TGI (EKVX NSCLC) of 6.02 µM and a GI50 (HCC-2998 colon) of 1.4 µM. For the same molecule, the TGI (HCC-2998 colon) was 4.6 µM, the GI50 (HCT-116 colon) was 2.03 µM and the TGI (HCT-116 colon) was 19.7 µM. It also gave a GI50 (HCT-15 colon) of 2.48 µM, a TGI (HCT-15 colon) of over 100 µM and a GI50 (HL-60(TB) leukemia) of 1.62 µM. The TGI (HL-60(TB) leukemia) was 4.96 µM, the GI50 (HOP-62 NSCLC) was 1.13 µM and the TGI (HOP-62 NSCLC) was over 100 µM. The GI50 (HOP-92 NSCLC) was 3.77 µM, the TGI (HOP-92 NSCLC) was over 100 µM and the GI50 (HS 578T breast) was 2.24 µM. The TGI (HS 578T breast) was 5.96 µM, the GI50 (HT29 colon) was 0.667 µM and the TGI (HT29 colon) was over 100 µM. The GI50 (IGROV1 ovarian) was 0.546 µM, the TGI (IGROV1 ovarian) was 3.06 µM and the GI50 (K-562 leukemia) was 0.406 µM. It also gave a TGI (K-562 leukemia) of 74.5 µM, a GI50 (KM12 colon) of 0.525 µM and a TGI (KM12 colon) of 12.4 µM. For the same molecule, the GI50 (LOX IMVI melanoma) was 7.18 µM, the TGI (LOX IMVI melanoma) was over 100 µM and the GI50 (MALME-3M melanoma) was 7.85 µM. The TGI (MALME-3M melanoma) was over 100 µM, the GI50 (MCF7 breast) was 0.433 µM and the TGI (MCF7 breast) was over 100 µM. The GI50 (MOLT-4 leukemia) was 2.81 µM, the TGI (MOLT-4 leukemia) was 11.4 µM and the GI50 (NCI-H226 lung) was 54.7 µM. For the same molecule, the TGI (NCI-H226 lung) was over 100 µM, the GI50 (NCI-H460 lung) was 1.14 µM and the TGI (NCI-H460 lung) was 6.83 µM. It also gave a GI50 (NCI-H522 lung) of 2 µM, a TGI (NCI-H522 lung) of 5.74 µM and a GI50 (NCI/ADR-RES ovarian) of 2.2 µM. The TGI (NCI/ADR-RES ovarian) was over 100 µM, the GI50 (OVCAR-3 ovarian) was 6.07 µM and the TGI (OVCAR-3 ovarian) was over 100 µM. It also gave a GI50 (OVCAR-4 ovarian) of 16.9 µM, a TGI (OVCAR-4 ovarian) of over 100 µM and a GI50 (OVCAR-5 ovarian) of 4.73 µM. The TGI (OVCAR-5 ovarian) was over 100 µM, the GI50 (OVCAR-8 ovarian) was 4.13 µM and the TGI (OVCAR-8 ovarian) was over 100 µM. The GI50 (PC-3 prostate) was 0.781 µM, the TGI (PC-3 prostate) was over 100 µM and the GI50 (RPMI-8226 leukemia) was 1.71 µM. It also gave a TGI (RPMI-8226 leukemia) of 11.7 µM, a GI50 (RXF 393 renal) of 1.2 µM and a TGI (RXF 393 renal) of 4.83 µM. For the same molecule, the GI50 (SF-268 CNS) was 2.09 µM, the TGI (SF-268 CNS) was over 100 µM and the GI50 (SF-295 CNS) was 0.249 µM. For the same molecule, the TGI (SF-295 CNS) was 0.799 µM, the GI50 (SF-539 CNS) was 0.56 µM and the TGI (SF-539 CNS) was 2.89 µM. For the same molecule, the GI50 (SK-MEL-2 melanoma) was 3.18 µM, the TGI (SK-MEL-2 melanoma) was 26.2 µM and the GI50 (SK-MEL-28 melanoma) was 15.6 µM. For the same molecule, the TGI (SK-MEL-28 melanoma) was over 100 µM, the GI50 (SK-MEL-5 melanoma) was 2.09 µM and the TGI (SK-MEL-5 melanoma) was 7.15 µM. The GI50 (SK-OV-3 ovarian) was 4.22 µM, the TGI (SK-OV-3 ovarian) was over 100 µM and the GI50 (SN12C renal) was 4.63 µM. It also gave a TGI (SN12C renal) of over 100 µM, a GI50 (SNB-19 CNS) of 1.82 µM and a TGI (SNB-19 CNS) of over 100 µM. The GI50 (SNB-75 CNS) was 1.02 µM, the TGI (SNB-75 CNS) was over 100 µM and the GI50 (SR leukemia) was 0.25 µM. The TGI (SR leukemia) was 8.06 µM, the GI50 (SW-620 colon) was 0.45 µM and the TGI (SW-620 colon) was over 100 µM. For the same molecule, the GI50 (T-47D breast) was 19.8 µM, the TGI (T-47D breast) was over 100 µM and the GI50 (TK-10 renal) was 10.1 µM. It also gave a TGI (TK-10 renal) of over 100 µM, a GI50 (U251 CNS) of 0.672 µM and a TGI (U251 CNS) of over 100 µM. The GI50 (UACC-257 melanoma) was 8.61 µM, the TGI (UACC-257 melanoma) was 47.4 µM and the GI50 (UACC-62 melanoma) was 4.37 µM. For the same molecule, the TGI (UACC-62 melanoma) was over 100 µM, the GI50 (UO-31 renal) was 4.75 µM and the TGI (UO-31 renal) was 50.6 µM.

Reference: PubChem BioAssay (NCI)
